In one assay the target is α4β7 integrin (Homo sapiens (Human), UniProt P13612+P26010). Kind of assay: α4β7 Integrin Cell Capture Assay. It is filed as cell-based. The following applies: RPMI8866 cells captured on MadCAM-1 extracellular domain-coated plate. As to the method:
α4β7 Integrin Cell Capture Assay
The potency of inhibitors in preventing α4β7 integrin interaction with MadCAM-1 was measured by monitoring the capture of α4β7 integrin expressing cells on a recombinant MadCAM-1 extracellular domain-coated plate. […] The plates were then washed with PBS and blocked with 3% BSA for 2 hours before being washed again.
RPM18866 cells were spun down and re-suspended in assay medium (DMEM+0.5% FBS+0.5 mM MnCl2) at a density of 0.5×10^6 cells/mL. […] The plates were incubated at 37° C. for 1 hour. 50 μL of cells were transferred to the blocked, MadCAM-1-coated plates and incubated for 30 minutes at 37° C. […] The plates were incubated for 90 minutes at room temperature. The plates were then washed 3 times with 70 μL of PBS per well and imaged on a Cellomics ArrayScan instrument. The cells that were bound to the plate were counted and plotted against the compound concentration to determine the EC50 of the test compounds.
Chain of α4β7 integrin (P13612 34-1032): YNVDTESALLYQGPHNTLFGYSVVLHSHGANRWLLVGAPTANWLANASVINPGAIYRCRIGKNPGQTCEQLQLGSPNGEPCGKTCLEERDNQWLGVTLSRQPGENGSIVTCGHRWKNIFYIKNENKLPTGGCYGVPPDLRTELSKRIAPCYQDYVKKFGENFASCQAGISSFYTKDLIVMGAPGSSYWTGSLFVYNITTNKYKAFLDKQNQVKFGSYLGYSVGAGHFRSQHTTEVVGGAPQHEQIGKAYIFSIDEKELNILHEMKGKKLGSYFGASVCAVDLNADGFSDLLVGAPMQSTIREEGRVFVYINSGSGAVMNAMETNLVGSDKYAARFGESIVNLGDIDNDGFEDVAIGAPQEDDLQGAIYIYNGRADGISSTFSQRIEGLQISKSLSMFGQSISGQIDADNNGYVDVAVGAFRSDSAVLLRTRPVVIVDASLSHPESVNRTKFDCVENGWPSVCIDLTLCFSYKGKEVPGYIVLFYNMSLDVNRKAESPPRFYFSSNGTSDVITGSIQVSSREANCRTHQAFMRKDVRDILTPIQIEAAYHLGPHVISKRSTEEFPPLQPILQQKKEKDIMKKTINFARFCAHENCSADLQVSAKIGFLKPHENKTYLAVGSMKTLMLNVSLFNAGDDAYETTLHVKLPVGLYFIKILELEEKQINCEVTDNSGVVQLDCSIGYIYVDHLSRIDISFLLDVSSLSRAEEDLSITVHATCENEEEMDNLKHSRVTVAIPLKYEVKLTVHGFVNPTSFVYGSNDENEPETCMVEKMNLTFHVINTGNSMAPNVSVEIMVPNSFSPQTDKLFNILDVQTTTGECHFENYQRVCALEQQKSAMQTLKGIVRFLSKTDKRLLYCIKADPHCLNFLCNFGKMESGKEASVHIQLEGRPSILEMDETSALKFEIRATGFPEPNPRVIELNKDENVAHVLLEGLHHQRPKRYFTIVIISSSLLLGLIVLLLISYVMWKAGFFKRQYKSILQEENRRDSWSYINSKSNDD
Chain of α4β7 integrin (P26010 20-798): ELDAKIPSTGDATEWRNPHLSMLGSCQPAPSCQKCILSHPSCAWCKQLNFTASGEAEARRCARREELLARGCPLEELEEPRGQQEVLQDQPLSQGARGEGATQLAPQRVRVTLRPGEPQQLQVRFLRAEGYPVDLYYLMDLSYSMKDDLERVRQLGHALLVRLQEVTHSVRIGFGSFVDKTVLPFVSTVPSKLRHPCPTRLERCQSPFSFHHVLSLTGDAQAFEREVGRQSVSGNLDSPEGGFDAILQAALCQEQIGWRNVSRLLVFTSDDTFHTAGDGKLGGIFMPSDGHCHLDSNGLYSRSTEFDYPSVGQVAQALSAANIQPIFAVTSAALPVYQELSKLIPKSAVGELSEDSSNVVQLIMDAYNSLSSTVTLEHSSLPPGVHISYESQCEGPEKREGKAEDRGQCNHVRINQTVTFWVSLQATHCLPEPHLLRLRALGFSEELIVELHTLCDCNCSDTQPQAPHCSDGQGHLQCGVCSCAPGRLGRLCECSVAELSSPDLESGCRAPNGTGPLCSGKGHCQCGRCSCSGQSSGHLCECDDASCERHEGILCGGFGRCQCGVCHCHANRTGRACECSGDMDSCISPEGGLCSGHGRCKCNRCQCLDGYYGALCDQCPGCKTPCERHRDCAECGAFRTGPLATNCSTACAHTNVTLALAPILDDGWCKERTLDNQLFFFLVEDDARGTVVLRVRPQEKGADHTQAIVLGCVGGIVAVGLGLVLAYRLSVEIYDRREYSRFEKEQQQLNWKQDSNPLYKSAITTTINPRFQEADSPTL
For the compound `Cc1cc(C(F)(F)F)c(-c2ccc(C[C@H](NC(=O)c3c(F)cc(N4CCO[C@@H](C)[C@@H]4C(F)(F)F)cc3F)C(=O)O)c3cccnc23)c(=O)n1C` [Example 468], the 50% effective concentration (EC50) (as a rule, the concentration at which the effect is half-maximal) worked out at 0.189 nM.

In the case of `CN(C)c1ccc2c(c1)c(=O)n(-c1ccc(C[C@H](NC(=O)c3c(F)cc(N4CCOC[C@@H]4C(F)(F)F)cc3F)C(=O)O)c3cccnc13)c(=O)n2C` [Example 478], the response was half-maximal at 0.394 nM (EC50).

Compound `Cc1cc(N2CCOC[C@@H]2C(F)(F)F)cc(F)c1C(=O)N[C@@H](Cc1ccc(-n2c(=O)c3cccnc3n(C)c2=O)c2ncccc12)C(=O)O` [Example 432] registered an EC50 of 0.11 nM.

For the compound `Cc1cc(C(F)(F)F)c(-c2ccc(C[C@H](NC(=O)c3c(F)cc(N4CCC[C@@H]4C(F)(F)F)cc3F)C(=O)O)c3cccnc23)c(=O)n1C` (atropisomer, axis not shown) [Example 485], the EC50 was 0.233 nM.

As for `Cc1cc(N2CCOC[C@H]2C(F)(F)F)cc(F)c1C(=O)N[C@@H](Cc1ccc(-n2c(=O)c3ccncc3n(C)c2=O)c2ncccc12)C(=O)O` [Example 409], the EC50 is 0.401 nM.

`Cc1cc(N2CCOC[C@@H]2C(F)(F)F)cc(F)c1C(=O)N[C@@H](Cc1ccc(-n2c(=O)c3cnccc3n(C)c2=O)c2ncccc12)C(=O)O` [Example 434] came in with an EC50 of 0.103 nM.

Compound `Cc1cc(N2CCOC[C@@H]2C(F)(F)F)cc(F)c1C(=O)N[C@@H](Cc1ccc(-c2c(C)c(Cl)cn(C)c2=O)c2ncccc12)C(=O)O` [Example 451] gave an EC50 of 0.208 nM.

For the compound `Cc1cc(N2CCOC[C@@H]2C(F)(F)F)cc(F)c1C(=O)N[C@@H](Cc1ccc(-n2c(=O)c3cnccc3n(C)c2=O)c2ncc(F)cc12)C(=O)O` [Example 427], a half-maximal response (EC50) required 0.355 nM.

Staying with this assay, now noted: Table 1; capture of α4β7 expressing RPM18866 cells on MadCAM-1 extracellular domain-coated plate.
Turning to `CN(C)c1ccnc(-c2ccc(C[C@H](NC(=O)c3c(F)cc(N4CCOC[C@@H]4C(F)(F)F)cc3F)C(=O)O)c3cccnc23)c1C(F)(F)F` [Example 105, (S)-2-(2,6-difluoro-4-((R)-3-(trifluoromethyl)morpholino)benzamido)-3-(8-(4-(dimethylamino)-3-(trifluoromethyl)pyridin-2-yl)quinolin-5-yl)propanoic acid], the EC50 was 4.1 nM.

Take `CC[C@@H](Nc1cc(F)c(C(=O)N[C@@H](Cc2ccc(-c3c(C(F)(F)F)cc(C)n(C)c3=O)c3ncccc23)C(=O)O)cc1C)C(F)(F)F` [Example 145, (S)-3-(8-(1,6-dimethyl-2-oxo-4-(trifluoromethyl)-1,2-dihydropyridin-3-yl)quinolin-5-yl)-2-(2-fluoro-5-methyl-4-(((R)-1,1,1-trifluorobutan-2-yl)amino)benzamido)propanoic acid]: the half-maximal effective concentration (EC50) amounted to 3.1 nM. The EC50 values of the last two compounds are within 1.5-fold of each other.

`CC[C@@H](Nc1cc(F)c(C(=O)N[C@@H](Cc2ccc(-c3cnc(C)n(C)c3=O)c3ncccc23)C(=O)O)c(F)c1)C(F)(F)F` [Example 118, (S)-2-(2,6-difluoro-4-(((R)-1,1,1-trifluorobutan-2-yl)amino)benzamido)-3-(8-(1,2-dimethyl-6-oxo-1,6-dihydropyrimidin-5-yl)quinolin-5-yl)propanoic acid] displayed an EC50 of 1.5 nM.

On to `CC[C@@H](Nc1cc(C)c(C(=O)N[C@@H](Cc2ccc(-c3c(C(F)(F)F)cc(C)n(C)c3=O)c3ncccc23)C(=O)O)c(F)c1)C(F)(F)F` [Example 142, (S)-3-(8-(1,6-dimethyl-2-oxo-4-(trifluoromethyl)-1,2-dihydropyridin-3-yl)quinolin-5-yl)-2-(2-fluoro-6-methyl-4-(((R)-1,1,1-trifluorobutan-2-yl)amino)benzamido)propanoic acid], for which the EC50 worked out at 0.2 nM.

For the compound `CC[C@@H](Nc1cc(Cl)c(C(=O)N[C@@H](Cc2ccc(-c3c(C(F)(F)F)cc(C)n(C)c3=O)c3ncccc23)C(=O)O)c(Cl)c1)C(F)(F)F` [Example 143, (S)-2-(2,6-dichloro-4-(((R)-1,1,1-trifluorobutan-2-yl)amino)benzamido)-3-(8-(1,6-dimethyl-2-oxo-4-(trifluoromethyl)-1,2-dihydropyridin-3-yl)quinolin-5-yl)propanoic acid], the midpoint of the response, the EC50, lay at 0.3 nM.

`Cn1c(=O)c(-c2ccc(C[C@H](NC(=O)c3c(F)cccc3F)C(=O)O)c3cccnc23)cc2ccccc21` [Example 14, (S)-2-(2,6-difluorobenzamido)-3-(1-methyl-2-oxo-1,2-dihydro-[3,8′-biquinolin]-5′-yl)propanoic acid] gave an EC50 of 3.7 nM.

As to `CC[C@@H](Nc1cc(F)c(C(=O)N[C@@H](Cc2ccc(-c3c(C)c(C)c(C)n(C)c3=O)c3ncccc23)C(=O)O)c(F)c1)C(F)(F)F` [Example 115, (S)-2-(2,6-difluoro-4-(((R)-1,1,1-trifluorobutan-2-yl)amino)benzamido)-3-(8-(1,4,5,6-tetramethyl-2-oxo-1,2-dihydropyridin-3-yl)quinolin-5-yl)propanoic acid], a half-maximal effect (EC50) was put at 0.6 nM.

As to `Cc1cc(C(F)(F)F)c(-c2ccc(C[C@H](NC(=O)c3c(F)cccc3F)C(=O)O)c3cccnc23)nc1C` [Example 12, (S)-2-(2,6-difluorobenzamido)-3-(8-(5,6-dimethyl-3-(trifluoromethyl)pyridin-2-yl)quinolin-5-yl)propanoic acid], the midpoint of the response, the EC50, lay at 7 nM.

Compound `Cc1cc(N2CCOC[C@@H]2C(F)(F)F)cc(F)c1C(=O)N[C@@H](Cc1ccc(-c2c(C(F)(F)F)cc(C)n(C)c2=O)c2ncccc12)C(=O)O` [Example 141, (S)-3-(8-(1,6-dimethyl-2-oxo-4-(trifluoromethyl)-1,2-dihydropyridin-3-yl)quinolin-5-yl)-2-(2-fluoro-6-methyl-4-((R)-3-(trifluoromethyl)morpholino)benzamido)propanoic acid] returned an EC50 of 0.1 nM.

In turn, `Cc1cc(Cl)c(-c2ccc(C[C@H](NC(=O)c3c(F)cc(N4CCOC[C@@H]4C(F)(F)F)cc3F)C(=O)O)c3cccnc23)c(=O)n1C` [Example 100, (S)-3-(8-(4-chloro-1,6-dimethyl-2-oxo-1,2-dihydropyridin-3-yl)quinolin-5-yl)-2-(2,6-difluoro-4-((R)-3-(trifluoromethyl)morpholino)benzamido)propanoic acid] had an EC50 of 0.7 nM.

As to `N#Cc1ccc(-c2ccc(C[C@H](NC(=O)c3c(Cl)cc(F)cc3Cl)C(=O)O)c3cccnc23)c(Cl)c1` [Example 22, (S)-3-(8-(2-chloro-4-cyanophenyl)quinolin-5-yl)-2-(2,6-dichloro-4-fluorobenzamido)propanoic acid], a half-maximal effect (EC50) was put at 48.5 nM.

Staying with this assay, now noted: Table 2; capture of α4β7 expressing RPM18866 cells on MadCAM-1 extracellular domain-coated plate.
In turn, `Cc1cc(N2CCOC[C@@H]2C(F)(F)F)cc(Cl)c1C(=O)N[C@@H](Cc1ccc(-c2c(C(F)(F)F)cc(C)n(C)c2=O)c2ncccc12)C(=O)O` [Example 160] registered an EC50 of 0.3 nM.

`CC[C@@H](Nc1cc(F)c(C(=O)N[C@@H](Cc2ccc(-c3c(C(F)(F)F)cc(F)c4cccnc34)c3ncccc23)C(=O)O)c(F)c1)C(F)(F)F` [Example 256] had an EC50 of 3.5 nM.

`Cc1cc(C(F)(F)F)c(-c2ccc(C[C@H](NC(=O)c3c(F)cc(N4C[C@H](C)OC[C@@H]4C(F)(F)F)cc3F)C(=O)O)c3cccnc23)c(=O)n1C` [Example 198] returned an EC50 of 1.4 nM.

For the compound `C[C@H](NC(=O)c1cc(F)c(C(=O)N[C@@H](Cc2ccc(-c3ccc(C#N)cc3Cl)c3ncccc23)C(=O)O)c(F)c1)c1ccccc1` [Example 162], the EC50 is 53.5 nM. This EC50 is about 38-fold higher than that of the compound before.

For `C[C@H](NC(=O)c1cc(F)c(C(=O)N[C@@H](Cc2ccc(-c3ccc(C#N)cc3Cl)c3ncccc23)C(=O)O)c(F)c1)C(F)(F)F` [Example 195], a half-maximal effect (EC50) was put at 62.3 nM.

In the case of `CC[C@@H](Nc1cc(F)c(C(=O)N[C@@H](Cc2ccc(-c3ncc(C)cc3Cl)c3ncccc23)C(=O)O)c(F)c1)C(F)(F)F` [Example 327], a half-maximal response (EC50) required 19.3 nM.

The compound `Cn1cc(-c2ccc(C[C@H](NC(=O)c3c(F)cc(N[C@H](c4ccc(Cl)cc4)C(F)(F)F)cc3F)C(=O)O)c3cccnc23)c(=O)n(C)c1=O` [Example 232] had an EC50 of 0.9 nM. Compared with the last compound, the EC50 is about 21-fold lower.

The compound `CC[C@@H](Nc1cc(F)c(C(=O)N[C@@H](Cc2ccc(-c3c(C(F)(F)F)cc(C)n(C)c3=O)c3nc(C)ccc23)C(=O)O)c(F)c1)C(F)(F)F` [Example 183] came in with an EC50 of 0.9 nM.

In turn, `N#Cc1ccc(-c2ccc(C[C@H](NC(=O)c3c(F)cc(NC4(C(F)(F)F)CCC4)cc3F)C(=O)O)c3cccnc23)c(Cl)c1` [Example 164] returned an EC50 of 88.6 nM. This EC50 is about 98-fold higher than that of the compound before.

In turn, `N#Cc1ccc(-c2ccc(C[C@H](NC(=O)c3c(F)cc(N4CCC(F)(F)CC4)cc3F)C(=O)O)c3cccnc23)c(Cl)c1` [Example 220] gave an EC50 of 45.2 nM.

The compound `N#Cc1ccc(-c2ccc(C[C@H](NC(=O)c3c(F)cc(N[C@H](c4cccc(F)c4)C(F)(F)F)cc3F)C(=O)O)c3cccnc23)c(Cl)c1` [Example 334] yielded an EC50 of 24.2 nM.

On to `N#Cc1ccc(-c2ccc(C[C@H](NC(=O)c3c(F)cc(N4CCCCC4)cc3F)C(=O)O)c3cccnc23)c(Cl)c1` [Example 278], for which the EC50 came out at 82.2 nM.

`CC[C@@H](Nc1cc(F)c(C(=O)N[C@@H](Cc2ccc(-c3nc(C)ccc3Cl)c3ncccc23)C(=O)O)c(F)c1)C(F)(F)F` [Example 321] came in with an EC50 of 15.8 nM.

On to `C[C@@H](Nc1cc(F)c(C(=O)N[C@@H](Cc2ccc(-c3cn(C)c(=O)n(C)c3=O)c3ncccc23)C(=O)O)c(F)c1)C(F)(F)F` [Example 211], for which a half-maximal response (EC50) required 1.9 nM.
